Test results from the kinase profiling compilation of Christmann-Franck et al. (2016).

Legend:
Assay in all cases: radiometric filter-binding kinase assay, Kinase HotSpot
Details in all cases: compound 0.5 µM; ATP 10 µM
[1] = target: CAMK2D (human) (UniProt Q13557)
[2] = target: EPHA2 (human) (UniProt P29317)
[3] = target: EPHB1 (human) (UniProt P54762)
[4] = target: MUSK (human) (UniProt O15146)
[5] = target: RPS6KA3 KD1 KD2 (human) (UniProt P51812)
[6] = target: ADRBK2 (human) (UniProt P35626)
[7] = target: CAMK1G (human) (UniProt Q96NX5)
CAMK1G (human), sequence (Q96NX5 whole entry, looked up): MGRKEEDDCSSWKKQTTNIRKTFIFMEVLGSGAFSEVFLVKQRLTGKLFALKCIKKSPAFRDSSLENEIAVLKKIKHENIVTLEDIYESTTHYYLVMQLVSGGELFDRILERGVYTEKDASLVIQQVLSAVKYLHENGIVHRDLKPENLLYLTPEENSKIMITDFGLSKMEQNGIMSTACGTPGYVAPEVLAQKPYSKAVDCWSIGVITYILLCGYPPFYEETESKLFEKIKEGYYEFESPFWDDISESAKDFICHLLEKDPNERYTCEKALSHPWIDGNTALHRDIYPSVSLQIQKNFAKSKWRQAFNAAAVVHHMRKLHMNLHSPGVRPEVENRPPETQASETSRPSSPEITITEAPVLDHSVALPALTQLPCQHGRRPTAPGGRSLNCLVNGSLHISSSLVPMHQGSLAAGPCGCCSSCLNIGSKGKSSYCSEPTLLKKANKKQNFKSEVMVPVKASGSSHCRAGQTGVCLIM

[8] = target: CAMK2G (human) (UniProt Q13555)
[9] = target: CDC42BPA (human) (UniProt Q5VT25)
[10] = target: CSNK1G3 (human) (UniProt Q9Y6M4)
[11] = target: DYRK2 (human) (UniProt Q92630)
[12] = target: EPHA3 (human) (UniProt P29320)
EPHA3 (human), sequence (P29320 whole entry, looked up): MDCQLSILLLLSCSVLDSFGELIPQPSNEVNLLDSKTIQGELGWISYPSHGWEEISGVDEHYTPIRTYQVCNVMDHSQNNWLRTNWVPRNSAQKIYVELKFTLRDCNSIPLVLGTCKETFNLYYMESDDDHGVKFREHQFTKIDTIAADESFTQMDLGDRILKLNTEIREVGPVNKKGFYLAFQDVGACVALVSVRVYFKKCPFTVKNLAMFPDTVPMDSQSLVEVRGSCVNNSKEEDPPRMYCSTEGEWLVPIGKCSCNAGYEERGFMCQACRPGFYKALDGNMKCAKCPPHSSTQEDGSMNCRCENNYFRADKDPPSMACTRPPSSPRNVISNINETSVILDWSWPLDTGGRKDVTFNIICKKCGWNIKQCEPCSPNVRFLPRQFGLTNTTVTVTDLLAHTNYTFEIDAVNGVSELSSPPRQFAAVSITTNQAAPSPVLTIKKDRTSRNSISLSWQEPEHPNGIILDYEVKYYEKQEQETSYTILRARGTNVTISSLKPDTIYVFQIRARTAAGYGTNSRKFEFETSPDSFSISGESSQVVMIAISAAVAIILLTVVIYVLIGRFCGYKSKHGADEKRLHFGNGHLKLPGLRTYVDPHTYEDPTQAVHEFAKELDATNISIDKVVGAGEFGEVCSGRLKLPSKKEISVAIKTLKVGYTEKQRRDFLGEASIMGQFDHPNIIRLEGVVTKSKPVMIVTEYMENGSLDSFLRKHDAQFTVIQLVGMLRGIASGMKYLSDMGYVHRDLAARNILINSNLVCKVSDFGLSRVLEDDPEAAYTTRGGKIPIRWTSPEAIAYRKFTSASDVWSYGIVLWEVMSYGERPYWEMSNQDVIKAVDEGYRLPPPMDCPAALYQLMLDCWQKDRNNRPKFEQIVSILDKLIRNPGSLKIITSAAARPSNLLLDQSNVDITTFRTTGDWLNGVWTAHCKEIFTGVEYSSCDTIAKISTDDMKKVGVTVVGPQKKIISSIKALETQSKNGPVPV

[13] = target: FGFR2 (human) (UniProt P21802)
FGFR2 (human), sequence (P21802 whole entry, looked up): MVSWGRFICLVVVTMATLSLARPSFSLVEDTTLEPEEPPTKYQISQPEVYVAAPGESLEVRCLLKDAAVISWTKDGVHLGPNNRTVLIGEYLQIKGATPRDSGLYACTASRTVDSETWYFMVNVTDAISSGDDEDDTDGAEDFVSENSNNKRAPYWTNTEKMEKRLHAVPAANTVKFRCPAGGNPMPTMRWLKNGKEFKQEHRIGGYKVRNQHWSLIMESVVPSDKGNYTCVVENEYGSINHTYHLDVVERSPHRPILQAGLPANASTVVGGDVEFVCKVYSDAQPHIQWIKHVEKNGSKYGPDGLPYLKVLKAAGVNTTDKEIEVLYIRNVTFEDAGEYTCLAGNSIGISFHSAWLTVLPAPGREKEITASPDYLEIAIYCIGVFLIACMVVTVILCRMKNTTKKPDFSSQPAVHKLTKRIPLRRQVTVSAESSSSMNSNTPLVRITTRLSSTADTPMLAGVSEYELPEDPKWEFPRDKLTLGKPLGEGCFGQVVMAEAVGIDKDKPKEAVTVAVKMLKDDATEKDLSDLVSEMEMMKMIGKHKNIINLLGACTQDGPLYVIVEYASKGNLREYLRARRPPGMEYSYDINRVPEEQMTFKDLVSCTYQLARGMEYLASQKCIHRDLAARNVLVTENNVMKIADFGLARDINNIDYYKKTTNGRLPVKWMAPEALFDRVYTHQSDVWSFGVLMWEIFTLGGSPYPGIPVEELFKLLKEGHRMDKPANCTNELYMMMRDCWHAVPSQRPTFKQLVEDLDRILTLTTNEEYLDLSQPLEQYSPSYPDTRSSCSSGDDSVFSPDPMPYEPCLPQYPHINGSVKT

[14] = target: GRK5 (human) (UniProt P34947)
GRK5 (human), sequence (P34947 whole entry, looked up): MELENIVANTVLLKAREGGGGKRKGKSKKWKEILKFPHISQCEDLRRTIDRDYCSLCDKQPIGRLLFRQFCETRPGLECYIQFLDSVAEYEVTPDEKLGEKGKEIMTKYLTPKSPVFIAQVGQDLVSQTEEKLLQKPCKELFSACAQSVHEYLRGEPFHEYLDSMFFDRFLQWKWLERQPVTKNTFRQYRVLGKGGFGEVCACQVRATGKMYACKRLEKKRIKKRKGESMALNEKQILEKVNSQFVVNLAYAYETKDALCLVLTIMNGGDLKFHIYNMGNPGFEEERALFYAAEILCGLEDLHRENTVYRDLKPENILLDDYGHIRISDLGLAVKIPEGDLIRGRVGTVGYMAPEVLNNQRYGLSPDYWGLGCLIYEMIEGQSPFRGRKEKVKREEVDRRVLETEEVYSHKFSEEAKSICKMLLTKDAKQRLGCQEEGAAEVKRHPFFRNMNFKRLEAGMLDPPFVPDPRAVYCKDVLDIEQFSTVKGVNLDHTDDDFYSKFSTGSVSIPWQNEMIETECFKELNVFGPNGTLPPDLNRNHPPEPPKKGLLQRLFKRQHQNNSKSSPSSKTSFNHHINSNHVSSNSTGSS

[15] = target: IRAK4 (human) (UniProt Q9NWZ3)
[16] = target: MAPK11 (human) (UniProt Q15759)
MAPK11 (human), sequence (Q15759 whole entry, looked up): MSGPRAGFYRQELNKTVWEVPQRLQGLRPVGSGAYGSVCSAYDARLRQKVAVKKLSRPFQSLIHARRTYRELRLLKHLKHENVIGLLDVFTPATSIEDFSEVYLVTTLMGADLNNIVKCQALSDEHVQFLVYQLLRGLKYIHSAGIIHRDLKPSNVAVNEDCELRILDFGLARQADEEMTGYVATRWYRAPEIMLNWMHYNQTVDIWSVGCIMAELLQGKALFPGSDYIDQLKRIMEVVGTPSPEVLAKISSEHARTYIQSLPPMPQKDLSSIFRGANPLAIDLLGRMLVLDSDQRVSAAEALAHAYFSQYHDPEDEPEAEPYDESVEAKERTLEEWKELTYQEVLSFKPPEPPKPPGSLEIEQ

[17] = target: MARK2 (human) (UniProt Q7KZI7)
[18] = target: MELK (human) (UniProt Q14680)
[19] = target: MLTK (human) (UniProt Q9NYL2)
[20] = target: NEK2 (human) (UniProt P51955)
[21] = target: NEK3 (human) (UniProt P51956)
[22] = target: NEK9 (human) (UniProt Q8TD19)
[23] = target: NUAK1 (human) (UniProt O60285)
[24] = target: NUAK2 (human) (UniProt Q9H093)
[25] = target: PAK4 (human) (UniProt O96013)
PAK4 (human), sequence (O96013 whole entry, looked up): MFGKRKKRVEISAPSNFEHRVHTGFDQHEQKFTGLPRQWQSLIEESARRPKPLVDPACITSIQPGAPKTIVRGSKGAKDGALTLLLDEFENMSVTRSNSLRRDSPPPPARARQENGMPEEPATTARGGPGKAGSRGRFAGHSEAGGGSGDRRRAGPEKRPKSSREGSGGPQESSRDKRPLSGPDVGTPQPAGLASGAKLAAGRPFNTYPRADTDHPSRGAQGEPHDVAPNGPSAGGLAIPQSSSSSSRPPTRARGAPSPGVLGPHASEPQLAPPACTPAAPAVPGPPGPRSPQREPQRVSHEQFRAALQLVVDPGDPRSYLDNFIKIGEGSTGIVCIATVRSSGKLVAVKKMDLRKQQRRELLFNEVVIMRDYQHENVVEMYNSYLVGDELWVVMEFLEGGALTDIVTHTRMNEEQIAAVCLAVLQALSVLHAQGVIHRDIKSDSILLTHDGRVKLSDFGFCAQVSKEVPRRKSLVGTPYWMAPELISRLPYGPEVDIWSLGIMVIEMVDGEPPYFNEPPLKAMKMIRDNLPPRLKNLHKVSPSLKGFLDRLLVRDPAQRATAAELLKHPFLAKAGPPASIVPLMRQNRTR

[26] = target: PAK7 (human) (UniProt Q9P286)
[27] = target: PASK (human) (UniProt Q96RG2)
[28] = target: PDGFRA (human) (UniProt P16234)
[29] = target: PNCK (human) (UniProt Q6P2M8)
PNCK (human), sequence (Q6P2M8 whole entry, looked up): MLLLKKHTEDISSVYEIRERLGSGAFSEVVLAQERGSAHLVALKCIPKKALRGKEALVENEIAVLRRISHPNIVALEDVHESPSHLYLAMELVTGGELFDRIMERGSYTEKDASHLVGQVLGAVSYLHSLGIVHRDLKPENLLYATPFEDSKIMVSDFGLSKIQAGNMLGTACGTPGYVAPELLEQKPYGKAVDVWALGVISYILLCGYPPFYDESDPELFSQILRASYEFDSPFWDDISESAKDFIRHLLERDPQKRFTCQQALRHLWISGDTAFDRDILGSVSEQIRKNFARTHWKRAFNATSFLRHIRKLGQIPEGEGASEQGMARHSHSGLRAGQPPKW

[30] = target: PRKD2 (human) (UniProt Q9BZL6)
[31] = target: ROCK2 (human) (UniProt O75116)
[32] = target: ROS1 (human) (UniProt P08922)
[33] = target: RPS6KA1 KD1 KD2 (human) (UniProt Q15418)
[34] = target: RPS6KA6 KD1 KD2 (human) (UniProt Q9UK32)
[35] = target: SRMS (human) (UniProt Q9H3Y6)
[36] = target: STK17A (human) (UniProt Q9UEE5)
STK17A (human), sequence (Q9UEE5 whole entry, looked up): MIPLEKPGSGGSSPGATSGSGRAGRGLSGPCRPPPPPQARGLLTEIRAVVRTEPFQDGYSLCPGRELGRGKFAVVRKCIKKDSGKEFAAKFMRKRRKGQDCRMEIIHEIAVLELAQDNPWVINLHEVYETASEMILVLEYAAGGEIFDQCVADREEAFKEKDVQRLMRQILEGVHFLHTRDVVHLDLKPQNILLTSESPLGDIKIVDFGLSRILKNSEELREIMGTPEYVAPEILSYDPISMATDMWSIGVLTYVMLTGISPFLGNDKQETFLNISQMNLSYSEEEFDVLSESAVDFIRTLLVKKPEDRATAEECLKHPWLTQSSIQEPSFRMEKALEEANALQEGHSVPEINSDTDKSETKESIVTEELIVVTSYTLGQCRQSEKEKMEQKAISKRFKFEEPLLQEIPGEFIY

[37] = target: STK39 (human) (UniProt Q9UEW8)
[38] = target: TAOK3 (human) (UniProt Q9H2K8)
[39] = target: VRK1 (human) (UniProt Q99986)
VRK1 (human), sequence (Q99986 whole entry, looked up): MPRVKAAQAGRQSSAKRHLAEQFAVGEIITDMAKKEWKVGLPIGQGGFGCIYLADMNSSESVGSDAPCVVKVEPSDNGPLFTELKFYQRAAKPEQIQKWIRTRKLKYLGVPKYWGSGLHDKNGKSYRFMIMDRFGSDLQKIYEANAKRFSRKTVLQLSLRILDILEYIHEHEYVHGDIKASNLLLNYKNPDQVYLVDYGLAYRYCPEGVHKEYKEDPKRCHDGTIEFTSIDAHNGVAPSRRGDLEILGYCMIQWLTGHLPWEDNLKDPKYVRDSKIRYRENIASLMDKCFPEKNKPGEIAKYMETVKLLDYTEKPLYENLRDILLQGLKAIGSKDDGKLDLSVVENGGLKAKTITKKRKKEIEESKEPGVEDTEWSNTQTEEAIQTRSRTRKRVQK

[40] = target: ZAP70 (human) (UniProt P43403)
[41] = target: HIPK3 (human) (UniProt Q9H422)
[42] = target: IRAK1 (human) (UniProt P51617)

CN[C@@H]1C[C@H]2O[C@@](C)([C@@H]1OC)n1c3ccccc3c3c4c(c5c6ccccc6n2c5c31)C(=O)NC4
residual activity [1]: 3.05% | residual activity [2]: 21.3% | residual activity [3]: 12% | residual activity [4]: 12.2% | residual activity [5]: -1.27%

N/C(=N\N=C/c1ccc(-c2cccc([N+](=O)[O-])c2)o1)N[N+](=O)[O-]
residual activity [6]: 102% | residual activity [7]: 104% | residual activity [1]: 90.1% | residual activity [8]: 82.1% | residual activity [9]: 87.3% | residual activity [10]: 86.2% | residual activity [11]: 93.1% | residual activity [12]: 99.3% | residual activity [3]: 107% | residual activity [13]: 104% | residual activity [14]: 123% | residual activity [15]: 87.3% | residual activity [16]: 96.6% | residual activity [17]: 108% | residual activity [18]: 102% | residual activity [19]: 98% | residual activity [4]: 94.4% | residual activity [20]: 88.9% | residual activity [21]: 101% | residual activity [22]: 91.8% | residual activity [23]: 96.4% | residual activity [24]: 95.2% | residual activity [25]: 95.3% | residual activity [26]: 97% | residual activity [27]: 88.4% | residual activity [28]: 93.2% | residual activity [29]: 100% | residual activity [30]: 94.3% | residual activity [31]: 86.3% | residual activity [32]: 97.5% | residual activity [33]: 86.3% | residual activity [5]: 101% | residual activity [34]: 96.9% | residual activity [35]: 90.2% | residual activity [36]: 100% | residual activity [37]: 91.8% | residual activity [38]: 99.5% | residual activity [39]: 95.1% | residual activity [40]: 93.1%

O=c1cc(N2CCOCC2)oc2c(-c3ccccc3)cccc12
residual activity [6]: 99.8% | residual activity [7]: 93.8% | residual activity [1]: 100% | residual activity [8]: 90.5% | residual activity [9]: 104% | residual activity [10]: 92.4% | residual activity [11]: 90.8% | residual activity [2]: 104% | residual activity [12]: 98.7% | residual activity [3]: 95.9% | residual activity [13]: 95.8% | residual activity [14]: 91.6% | residual activity [41]: 120% | residual activity [42]: 104% | residual activity [15]: 96% | residual activity [16]: 96.2% | residual activity [17]: 79.2% | residual activity [18]: 91.3% | residual activity [19]: 94.2% | residual activity [4]: 102% | residual activity [20]: 89.8% | residual activity [21]: 102% | residual activity [22]: 101% | residual activity [23]: 92.5% | residual activity [24]: 95.1% | residual activity [25]: 92.8% | residual activity [26]: 104% | residual activity [27]: 90.2% | residual activity [28]: 94.6% | residual activity [29]: 98.4% | residual activity [30]: 93.8% | residual activity [31]: 95.2% | residual activity [32]: 98.4% | residual activity [33]: 97.3% | residual activity [5]: 98.1% | residual activity [35]: 103% | residual activity [36]: 93.5% | residual activity [37]: 78.4% | residual activity [38]: 88.2% | residual activity [39]: 85.4% | residual activity [40]: 102%

COc1cc2c(Nc3ccc(Br)cc3F)ncnc2cc1OCC1CCN(C)CC1
residual activity [6]: 97.4% | residual activity [7]: 101% | residual activity [1]: 95.8% | residual activity [8]: 112% | residual activity [9]: 83.7% | residual activity [10]: 98.1% | residual activity [11]: 97.2% | residual activity [2]: 21.5% | residual activity [12]: 57.7% | residual activity [3]: 27.8% | residual activity [13]: 38.4% | residual activity [14]: 95.8% | residual activity [41]: 99.5% | residual activity [42]: 87.7% | residual activity [15]: 35.3% | residual activity [16]: 97.1% | residual activity [17]: 107% | residual activity [18]: 94.4% | residual activity [4]: 94.6% | residual activity [20]: 103% | residual activity [21]: 103% | residual activity [22]: 101% | residual activity [23]: 92.7% | residual activity [24]: 100% | residual activity [25]: 90.2% | residual activity [26]: 93.5% | residual activity [27]: 102% | residual activity [28]: 28.6% | residual activity [29]: 99.5% | residual activity [30]: 92% | residual activity [31]: 90.7% | residual activity [32]: 76.5% | residual activity [33]: 102% | residual activity [5]: 97.8% | residual activity [34]: 99.3% | residual activity [35]: 98.8% | residual activity [36]: 92.4% | residual activity [37]: 97.4% | residual activity [38]: 98.4% | residual activity [39]: 98.9% | residual activity [40]: 96.8%
